Source: PubChem BioAssay (NCI)
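Test compounds were applied to cells in 96-well plates for 48 hours at 5 doses. At the GI50, growth is halved. TGI: concentration producing complete growth inhibition.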

How the values were obtained:
Test in all cases: NCI tumour cell line growth inhibition, 48 h
OVCAR-4 ovarian = system: OVCAR-4 ovarian
RPMI-8226 leukemia = system: RPMI-8226 leukemia
A498 renal = system: A498 renal
M14 melanoma = system: M14 melanoma
OVCAR-3 ovarian = system: OVCAR-3 ovarian
HCC-2998 colon = system: HCC-2998 colon
SK-MEL-28 melanoma = system: SK-MEL-28 melanoma
EKVX NSCLC = system: EKVX NSCLC
BT-549 breast = system: BT-549 breast
MDA-MB-435 = system: MDA-MB-435

Structure (SMILES) | TGI (OVCAR-4 ovarian) | TGI (RPMI-8226 leukemia) | TGI (A498 renal) | TGI (M14 melanoma) | TGI (OVCAR-3 ovarian) | TGI (HCC-2998 colon) | TGI (SK-MEL-28 melanoma) | TGI (EKVX NSCLC) | GI50 (EKVX NSCLC) | GI50 (BT-549 breast) | TGI (BT-549 breast) | GI50 (OVCAR-4 ovarian) | GI50 (RPMI-8226 leukemia) | GI50 (A498 renal) | GI50 (M14 melanoma) | GI50 (OVCAR-3 ovarian) | GI50 (MDA-MB-435) | TGI (MDA-MB-435) | GI50 (SK-MEL-28 melanoma) | GI50 (HCC-2998 colon)
Cc1c2c(c(C)c3c1[nH]c1ccccc13)CN(C)CC2 | > 100 µM | 67 µM | 59.4 µM | 28.4 µM | 52.7 µM | 31.2 µM | 36.2 µM |  |  |  |  |  |  |  |  |  |  |  |  | 
O=C1OC(=O)C2C3C=CC(C12)C1C2C=CC2C31 (stereo not given) | > 100 µM |  | > 100 µM |  |  | > 100 µM | > 100 µM | > 100 µM |  |  |  |  |  |  |  |  |  |  |  | 
CCn1c2ccccc2c2c(-c3ccccc3)cc3c(c21)C(=O)N(c1ccccc1)C3=O | > 100 µM |  | > 100 µM | > 100 µM | > 100 µM | > 100 µM | > 100 µM | > 100 µM |  |  |  |  |  |  |  |  |  |  |  | 
NC(CSSCC(N)C(=O)O)C(=O)O (stereo not given) | > 100 µM | > 100 µM | > 100 µM | > 100 µM | > 100 µM |  | > 100 µM | > 100 µM | > 100 µM | > 100 µM | > 100 µM | > 100 µM | > 100 µM | > 100 µM | > 100 µM | > 100 µM | > 100 µM | > 100 µM | > 100 µM | 
NC(=O)NC1C(C(=O)O)N(Cc2ccccc2)C(=O)N1Cc1ccccc1 (stereo not given) | > 100 µM | > 100 µM |  | > 100 µM | > 100 µM | > 100 µM | > 100 µM | > 100 µM |  |  |  |  |  |  |  |  |  |  |  | 
C=Cn1c([N+](=O)[O-])cnc1/C=C/c1ccc(C(=O)OCCN2CCOCC2)cc1 | > 100 µM | 78.4 µM | > 100 µM | > 100 µM | > 100 µM |  | > 100 µM | > 100 µM |  |  | > 100 µM |  |  |  |  |  |  | > 100 µM |  | 
CC1(C)Cc2c(Br)c(Br)c(Br)c(OCC(O)CN3CCN(c4ccccn4)CC3)c2O1 (stereo not given) | 26.7 µM |  | 29.5 µM | 29.7 µM | 23.4 µM | 13.7 µM | 32.7 µM | 43.2 µM | 11.3 µM | 11.6 µM | 26 µM | 12.1 µM |  | 14.8 µM | 13.3 µM | 9.54 µM | 14.3 µM | 33.6 µM | 18 µM | 3.68 µM
CC(=O)c1ccc(NC(=O)COC(=O)c2cccc3c(=O)c4ccccc4[nH]c23)cc1 | 25.9 µM |  | > 100 µM | > 100 µM | 69.4 µM | > 100 µM | > 100 µM | > 100 µM |  |  |  |  |  |  |  |  |  |  |  | 
COc1c(N2CCN(CN3C(=O)C(=O)c4cc(Cl)ccc43)C(C)C2)c(F)cc2c(=O)c(C(=O)O)cn(C3CC3)c12 (stereo not given) | > 100 µM | 25.7 µM | 80.9 µM | > 100 µM | > 100 µM |  | > 100 µM | > 100 µM | 13.7 µM | 37.3 µM | > 100 µM | 55.5 µM | 9.07 µM | 11.9 µM | 69.6 µM | 30 µM | 17.2 µM | 36.3 µM | 97.5 µM | 
Cc1ccc(C2NC(=O)c3ccccc3N2)c(C)c1 (stereo not given) | > 59.7 µM | 12 µM | 34.9 µM | 40 µM | 4.68 µM | > 61.1 µM | > 100 µM | > 100 µM |  |  |  |  |  |  |  |  |  | 1.19 µM |  | 
Cc1nc2cc(Nc3ccccc3C(=O)O)ccc2s1 | > 100 µM | > 100 µM | > 100 µM | > 100 µM | > 100 µM | > 100 µM | > 100 µM |  |  |  |  |  |  |  |  |  |  |  |  | 
Cc1nc2cc(Nc3nc(Nc4ccc(F)cc4)nc(N4CCOCC4)n3)ccc2n1Cc1ccccc1 | 41.8 µM | 5.86 µM | 4.57 µM | 8.59 µM | 7.14 µM |  | 9.6 µM |  |  | 8.19 µM | 25.7 µM | 4.47 µM | 2.19 µM | 1.3 µM | 3.16 µM | 2.75 µM | 3.95 µM | 15.9 µM | 3.17 µM | 
Cn1cc(C(=O)c2ccccc2)cc(C(=O)c2ccccc2)c1=O | > 100 µM | > 100 µM |  | > 100 µM | > 100 µM | > 100 µM | > 100 µM | > 100 µM |  |  |  |  |  |  |  |  |  |  |  | 
O=C(/C=C(\C(=O)c1cccs1)c1cccs1)c1ccc(C(=O)/C=C(\C(=O)c2cccs2)c2cccs2)cc1 | > 100 µM | > 100 µM |  | > 100 µM |  | > 100 µM | > 100 µM | > 100 µM |  |  |  |  |  |  |  |  |  | > 100 µM |  | 
CN(CCC(=O)/C(=C\c1ccccc1)c1ccc(Cl)cc1)Cc1ccccc1 | 12.7 µM |  | 12.6 µM | 7.99 µM | 5.04 µM | 9.77 µM |  | 18.8 µM | 5.37 µM | 2.94 µM | 8.76 µM | 3.15 µM |  | 3.45 µM | 2.7 µM | 2.03 µM | 1.83 µM | 4.07 µM |  | 3.54 µM
NC(Cc1ccc2nc3c4ccccc4c(=O)cc-3oc2c1)C(=O)O (stereo not given) | > 100 µM | > 100 µM |  | > 100 µM | > 100 µM | > 100 µM | > 100 µM | > 100 µM |  |  | > 100 µM |  |  |  |  |  |  | 32.3 µM |  | 
CC(=O)NC1=NC(=O)/C(=C/c2ccc(/C=C3/C(=O)N=C(NC(C)=O)N3C)cc2)N1C | > 100 µM |  | > 100 µM | > 100 µM | > 100 µM | > 100 µM | > 100 µM | > 100 µM |  |  | > 100 µM |  |  |  |  |  |  | > 100 µM |  | 
CCCCCCNCc1cc(C(C)(C)C)cc(CNCCCCCC)c1O | 3.47 µM | 4.05 µM | 3.47 µM | 3.18 µM | 3.15 µM | 2.99 µM | 3.27 µM | 2.96 µM | 1.55 µM |  |  | 1.85 µM | 1.96 µM | 2.02 µM | 1.75 µM | 1.73 µM | 1.61 µM | 2.98 µM | 1.83 µM | 1.62 µM
NC(=S)N1N=C2c3ccccc3CC[C@H]2[C@@H]1c1ccc(Cl)cc1 | > 100 µM | > 100 µM | > 100 µM | > 100 µM | > 100 µM | > 100 µM | > 100 µM | > 100 µM |  |  |  |  |  |  |  |  |  |  |  | 
COc1ccc(NC(=O)CC(=O)n2nc(C)c(N=Nc3ccccc3C(=O)O)c2C)cc1 | > 100 µM | > 100 µM | > 100 µM | > 100 µM | > 100 µM | > 100 µM | > 100 µM | > 100 µM |  |  |  |  |  |  |  |  |  |  |  | 
